Measured values taken from ChEMBL document CHEMBL1126373, “HIV and reverse transcriptase inhibition by tannins” (Bioorg Med Chem Lett, 1992).

Experiments:
[1] = Therapeutic index was determined; details: Human immunodeficiency virus 1
[2] = system: Human immunodeficiency virus 1; experiment: Inhibition against HIV replication in cell culture at 20 ug/mL; assay type: functional
[3] = system: Human immunodeficiency virus 1; experiment: Anti-HIV activity in cell culture assay expressed as IC50 values.; assay type: functional, organism-based
[4] = system: Human immunodeficiency virus 1; experiment: Anti-HIV activity in cell culture assay expressed as EC50 values.; assay type: functional, organism-based

SMILES: O=C(OC[C@H]1O[C@@H](OC(=O)c2cc(O)c(O)c(O)c2)[C@H](OC(=O)c2cc(O)c(O)c(O)c2)[C@@H](OC(=O)c2cc(O)c(O)c(O)c2)[C@@H]1OC(=O)c1cc(O)c(O)c(O)c1)c1cc(O)c(O)c(O)c1 (stereo in doubt; 10) [PENTAGALLOYL GLUCOSE]
- Therapeutic index [1]: 1.3
- Inhibition [2]: 60%
- IC50 [3]: 19 µM
- EC50 [4]: 15 µM
